The numbers were not newly measured in paper PMC7732027 (Bioorganic & medicinal chemistry letters, 2019), which cites them from elsewhere.

The data set concerns A/H3N2 viruses with PA I38T/F substitutions. To be noted: cited from earlier work.

For the molecule `COC(=O)OCOc1c2n(ccc1=O)N([C@@H]1c3ccccc3SCc3c1ccc(F)c3F)[C@@H]1COCCN1C2=O` [BXM, baloxavir marboxil], the “reduction in BXM susceptibility” value is listed as “more than 10 fold”.
